Consider four compounds from US4444773A, “Substituted thiazolo[3,2-a]pyrimidines and process for their preparation” (Farmitalia Carlo Erba S.p.A., priority 1981, dated 1984).

The test system of one series is restraint ulcers in rats. The experiment in a line: inhibition of restraint ulcers in rats (Bonfils method). It counts as in vivo. To be noted: po; approximate ED50; rat, per os one hour before immobilization, lesions counted 4 hours after immobilization; read-out: Antiulcerogenic activity p.o. ED50. An excerpt:
The compounds of the present invention are active on the gastroenteric system, in particular they are endowed with anti-ulcerogenic and gastric anti-secretory activity and are therefore useful in therapy, for example in the prevention and treatment of peptic, e.g. duodenal, gastric and esophageal, ulcers and to inhibit gastric acid secretion. The compounds of the invention are also useful for reducing the undesiderable gastrointestinal side-effects resulting from systemic administration of anti-inflammatory prostaglandin synthetase inhibitors and may be, therefore, used for this purpose in association with them. The anti-ulcerogenic activity of the compounds of the invention is shown, e.g., by the fact that they are active in the test of the inhibition of restraint ulcers in rats, according to the method of Bonfils et al., (Therapie, 1960, 5, 1096; Jap. J. Pharmac. 1945, 43, 5). Six Sprague-Dawley male rats (100-120 g) fasted 24 hours were used for the experiment: a square flexible small-mesh wire netting was used for the immobilization and 4 hours after the immobilization the rats were sacrificed, their stomachs were removed and the lesions counted under a dissecting microscope. The tested compounds were administered per os (p.o.) one hour before the immobilization.

In series [1] the test system is phenylquinone induced writhing. The series can be described thus: phenylquinone induced writhing test (Siegmund). Type of series: in vivo, mice. The note with it: Mus musculus; approximate ED25; printed 'in the rat', after oral administration; read-out: analgesic activity ED25, phenylquinone-induced writhing test. An excerpt: (§1) A. Winter et al. (J. Pharmac. Exp. Therap. 1963, 141, 369) and P. Lence (Arch. Int. Pharmacodyn., 1962, 136, 237), and (B) the Reversed Passive Arthus Reaction (RPAR) in rat paw, induced by the interaction of antigen and antibody resulting in the formation of precipitating immune complex, followed by fixation of complement and accumulation of polymorphonuclear leucocytes at a focal point (D. K. GEMMELL, J. COTTNEY and A. J. LEWIS, Agents and Actions 9/1 pag. 107, 1979). The compounds of this invention are also endowed with analgesic activity. The analgesic activity was assessed, for example, by means of phenylquinone induced writhing test in mice according to Siegmund [Siegmund et al. Proc. Soc. Exper. Biol. Med., 95, 729 (1957)].
With regard to the analgesic activity, one of the preferred compounds of this invention is, for example, the compound 2-chloro-7-trans-[2-(3-pyridyl)-ethenyl]-5H-thiazolo[3,2-a]pyrimidine-5-one, wich has an approximate ED25 value of 25 mg/kg in the phenylquinone-induced writhing test in the rat, after oral administration. Furthermore the compounds of this invention are effective in the inhibiting the TXA2 synthetase in vivo and may be therefore useful in therapy, for example, in the prevention and treatment of all kinds of thrombosis, peripheral vasculopaties and coronary artery diseases.

Series [2] in a line: acute toxicity (LD50) in the mouse. To be noted: in vivo, po, per os, single administration of increasing doses, measured on the seventh day, read-out: approximate acute toxicity (LD50). How it is done: In view of their high therapeutic index, the compounds of the invention can be used safely in medicine. For example, the approximate acute toxicity (LD50) of the compounds 7-trans-[2-(3-pyridyl)-ethenyl]-5H-thiazolo[3,2-a]pyrimidine-5-one and 2-chloro-7-trans-[2-(3-pyridyl)-ethenyl]-5H-thiazolo[3,2-a]pyrimidine-5-one in the mouse determined by single administration of increasing doses and measured on the seventh day of treatment, is higher than 800 mg/kg per os. Analogous toxicity data have been found for other compounds of the invention.

Series [3] has as its system carrageenin induced oedema. The series can be described thus: carrageenin induced oedema in the hind paw of rats. To be noted: approximate ED25; rat, oral administration; read-out: Anti-inflammatory activity Carrageenin induced oedema ED25. It counts as in vivo.
From the text: as §1
(§2) Therefore the compounds of the invention may be used in therapy to treat pains and inflammatory processes, such as for example, rheumatoid arthritis and osteoarthrosis. The following Tables II and III show, for example, the approximate ED25 values of the anti-inflammatory activity in the above tests in the rat after oral administration for some compounds of this invention: […]
A general note: The carrageenan paw model is a standard test of acute inflammation.

Series [4] has as its system Reversed Passive Arthus Reaction (RPAR). The experiment in a line: Reversed Passive Arthus Reaction (RPAR) in rat paw. To be noted: approximate ED25, oral administration, read-out: Anti-inflammatory activity RPAR reaction ED25. Type of series: in vivo.
From the text: as §1, §2

In series [5] the test system is gastric secretion in rats. The experiment in a line: gastric antisecretory activity, pylorus ligature technique (Shay method). Type of series: in vivo. To be noted: approximate ED50; rat, intraduodenal administration at the time of ligature, 4 hours. How it is done:
Gastric antisecretory activity was evaluated in rats by the pylorus ligature technique. Six Sprague-Dawley male rats (110-130 g) were used for each group. Twenty-four hours before the test, the rats were deprived of food but their water supply was maintained. On the day of the operation, the pylorus was ligated under light ether anaesthesia. Each compound was injected intraduodenally (i.d.) at the time of the ligature. Four hours after the ligature the rats were sacrificed, the stomach secretion was collected and centrifuged at 3500 r.p.m. for 10 minutes, and the volume, less sediment, was determined.
The amount of the free hydrochloric acid in the gastric juice was determined by titration against 0.01 N sodium hydroxide to pH 7.0.

In the next series the target is T1, TXA2 synthetase (Rattus norvegicus, UniProt P49430).
T1 construct: determining the concentration of TXB2 in the serum of the animals killed two hours after the administration of the drug; from tissue; host or cells: living rat, serum sampled after oral dosing (endogenous enzyme)
T1 sequence (P49430 1-533): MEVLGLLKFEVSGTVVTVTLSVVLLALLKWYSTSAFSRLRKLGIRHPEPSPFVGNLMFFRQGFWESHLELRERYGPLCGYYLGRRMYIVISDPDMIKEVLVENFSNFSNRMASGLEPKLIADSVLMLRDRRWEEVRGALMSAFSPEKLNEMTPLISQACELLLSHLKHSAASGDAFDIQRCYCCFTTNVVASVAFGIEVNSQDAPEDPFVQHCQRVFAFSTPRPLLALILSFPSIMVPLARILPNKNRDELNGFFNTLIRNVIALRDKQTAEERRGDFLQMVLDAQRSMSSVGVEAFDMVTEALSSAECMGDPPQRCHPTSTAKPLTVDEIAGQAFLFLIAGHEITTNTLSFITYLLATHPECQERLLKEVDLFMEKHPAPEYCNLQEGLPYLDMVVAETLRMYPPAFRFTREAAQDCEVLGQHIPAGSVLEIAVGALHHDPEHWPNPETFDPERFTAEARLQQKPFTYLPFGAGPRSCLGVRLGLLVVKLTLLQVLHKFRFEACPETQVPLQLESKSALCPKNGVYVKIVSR
The series can be described thus: TXA2 synthetase inhibition in vivo, TXB2 concentration in serum. The note with it: single oral dose of 10 mg/kg, TXB2 in serum two hours after administration. How it is done:
The activity on the TXA2 synthetase was evaluated, e.g., in rat by administering the compounds at a single oral dose of 10 mg/kg and determining the concentration of TXB2 in the serum of the animals killed two hours after the administration of the drug.

A word on the ED50: it is the dose that gives a 50% effect, or the effect in half of the subjects. As a reminder, the LD50 is the dose expected to kill half of the subjects tested. Take `O=c1cc(/C=C/c2cccnc2)nc2sc(Cl)cn12` [2-chloro-7-trans-[2-(3-pyridyl)-ethenyl]-5H-thiazolo[3,2-a]pyrimidine-5-one]: in the series on restraint ulcers in rats, the ED50 was 10 mg/kg. Besides, the values for the ED25 in series [1], in series [3] and in series [4] were roughly 25 mg/kg, 16 mg/kg and 25 mg/kg, respectively. Moreover, the LD50 at 168 h in series [2] was greater than 800 mg/kg.

With `COc1c(/C=C/c2cccnc2)nc2sccn2c1=O` [6-methoxy-7-trans-[2-(3-pyridyl)-ethenyl]-5H-thiazolo[3,2-a]pyrimidine-5-one], the ED50 in series [5] was roughly 30 mg/kg. For the same compound, the ED25 in series [3] amounted to 15 mg/kg.

Regarding `Cc1c(/C=C/c2cccnc2)nc2sccn2c1=O` [6-methyl-7-trans-[2-(3-pyridyl)-ethenyl]-5H-thiazolo[3,2-a]pyrimidine-5-one], at TXA2 synthetase, the “TXA2 synthetase inhibiting activity” value is “having TXA2 synthetase inhibiting activity”.

For the compound `O=c1cc(/C=C/c2cccnc2)nc2sccn12` [7-trans-[2-(3-pyridyl)-ethenyl]-5H-thiazolo[3,2-a]pyrimidine-5-one], the ED50 in the series with restraint ulcers in rats is 9 mg/kg. In series [2], the LD50 at 168 h was greater than 800 mg/kg. The ED25 in series [3] turned out to be 6 mg/kg.
